# Columns and labels:
# wild type HIV-1 = assay: microbe, parasite or virus in culture; type: cell-based, human immunodeficiency virus type 1 (HIV-1); conditions: Human immunodeficiency virus 1, Hela-JC53
# HIV-1 K103N-L100I mutant = assay: microbe, parasite or virus in culture; type: cell-based, human immunodeficiency virus type 1 (HIV-1); conditions: Human immunodeficiency virus 1, HeLa, read-out: EC50 mutant K103N-L100I, mutant K103N-L100I
SMILES,EC50 (wild type HIV-1),EC50 (HIV-1 K103N-L100I mutant)
"Cc1cc(-c2ccc(C(N)=O)cc2F)cc(C)c1Oc1nc(Nc2ccc(C#N)cc2)nc2c1ncn2C [Example 56, 4′-(2-(4-Cyanophenylamino)-9-methyl-9H-purin-6-yloxy)-2-fluoro-3′,5′-dimethylbiphenyl-4-carboxamide]",1 to 10 nM,1 to 10 nM
"Cc1cc(-c2ccnnc2)cc(C)c1Oc1nc(Nc2ccc(C#N)cc2)nc2ccn(C)c12 [Example 57, 4-(4-(2,6-dimethyl-4-(pyridazin-4-yl)phenoxy)-5-methyl-5H-pyrrolo[3,2-d]pyrimidin-2-ylamino) benzonitrile]",< 1 nM,1 to 10 nM
"Cc1cc(-c2ccnnc2)cc(C)c1Oc1nc(Nc2ccc(C#N)cc2)nc2ncn(C)c12 [Example 58, 4-(6-(2,6-Dimethyl-4-(pyridazin-4-yl)phenoxy)-7-methyl-7H-purin-2-ylamino)benzonitrile]",1 to 10 nM,1 to 10 nM
"Cc1cc(-c2ccnnc2)cc(C)c1Oc1nc(Nc2ccc(C#N)cc2)nc2c1ncn2C [Example 59, 4-(6-(2,6-Dimethyl-4-(pyridazin-4-yl)phenoxy)-9-methyl-9H-purin-2-ylamino)benzonitrile]",1 to 10 nM,> 10 nM
"Cc1cc(-c2ccc(C(N)=O)nc2)cc(C)c1Oc1nc(Nc2ccc(C#N)cc2)nc2ccn(C)c12 [Example 60, 5-(4-(2-(4-Cyanophenylamino)-5-methyl-5H-pyrrolo[3,2-d]pyrimidin-4-yloxy)-3,5-dimethyl-phenyl)picolinamide]",1 to 10 nM,> 10 nM
"Cc1cc(-c2ccc(F)cc2)cc(C)c1Oc1nc(Nc2ccc(C#N)cc2)nc2ccn(C)c12 [Example 62, 4-(4-(4′-fluoro-3,5-dimethylbiphenyl-4-yloxy)-5-methyl-5H-pyrrolo[3,2-d]pyrimidin-2-ylamino) benzonitrile]",1 to 10 nM,> 10 nM
"Cc1cc(-c2ccc(F)c(C#N)c2)cc(C)c1Oc1nc(Nc2ccc(C#N)cc2)nc2ccn(C)c12 [Example 63, 4′-(2-(4-cyanophenylamino)-5-methyl-5H-pyrrolo[3,2-d]pyrimidin-4-yloxy)-4-fluoro-3′,5′-dimethylbiphenyl-3-carbonitrile]",< 1 nM,1 to 10 nM
"Cc1cc(-c2cnccc2C#N)cc(C)c1Oc1nc(Nc2ccc(C#N)cc2)nc2ccn(C)c12 [Example 64, 3-(4-(2-(4-cyanophenylamino)-5-methyl-5H-pyrrolo[3,2-d]pyrimidin-4-yloxy)-3,5-dimethylphenyl) isonicotinonitrile]",< 1 nM,< 1 nM
"Cc1cc(-c2cc(F)cc(F)c2)cc(C)c1Oc1nc(Nc2ccc(C#N)cc2)nc2ccn(C)c12 [Example 65, 4-(4-(3′,5′-difluoro-3,5-dimethylbiphenyl-4-yloxy)-5-methyl-5H-pyrrolo[3,2-d]pyrimidin-2-ylamino) benzonitrile]",< 1 nM,> 10 nM
Cc1cc(-c2cc(F)c(F)c(F)c2)cc(C)c1Oc1nc(Nc2ccc(C#N)cc2)nc2ccn(C)c12 [Example 66],< 1 nM,1 to 10 nM
"COc1c(F)cc(F)cc1-c1cc(C)c(Oc2nc(Nc3ccc(C#N)cc3)nc3ccn(C)c23)c(C)c1 [Example 67, 4-(4-(3′,5′-difluoro-2′-methoxy-3,5-dimethylbiphenyl-4-yloxy)-5-methyl-5H-pyrrolo[3,2-d]pyrimidin-2-ylamino) benzonitrile]",< 1 nM,> 10 nM
"Cc1cc(-c2ccc3c(c2)OCCO3)cc(C)c1Oc1nc(Nc2ccc(C#N)cc2)nc2ccn(C)c12 [Example 68, 4-(4-(4-(2,3-dihydrobenzo [b][1,4]dioxin-6-yl)-2,6-dimethylbipheoxy)-5-methyl-5H-pyrrolo[3,2-d]pyrimidin-2-ylamino) benzonitrile]",< 1 nM,> 10 nM
"Cc1cc(-c2ccc3c(c2)OCO3)cc(C)c1Oc1nc(Nc2ccc(C#N)cc2)nc2ccn(C)c12 [Example 69, 4-(4-(4-(benzo[d][1,3]dioxol-5-yl)-2,6-dimethylbiphenoxy)-5-methyl-5H-pyrrolo[3,2-d]pyrimidin-2-ylamino) benzonitrile]",1 to 10 nM,> 10 nM

# — patent publication US8207178B2 (priority 2007, dated 2012)
